Measurements from patent US7582645B2, “Pyrimidine derivatives for treatment of hyperproliferative disorders” (Bayer Pharmaceuticals Corporation, priority 2003, dated 2009).
Counter-ions that a name gives are not always drawn.

system: HCT116 cells; test: HCT116 cytotoxic activity assay (Alamar Blue, 72 h); assay type: cell-based; conditions: Homo sapiens, HCT-116, 72 h compound exposure, greater than 500 nM but less than or equal to 2 μM
Experimental: Representative compounds of this invention were tested for cytotoxicity using the above-described assay procedure with the following results: […]

SMILES	IC50 [µM]
Nc1nc(Nc2ccc(Oc3c(F)cncc3F)cc2)cc(-c2ccccc2)n1 [Example 5, N^4-{4-[(3,5-difluoropyridin-4-yl)oxy]phenyl}-6-phenylpyrimidine-2,4-diamine]	0.5 to 2
CNC(=O)c1cc(Oc2ccc(Nc3cc(-c4ccoc4)nc(N)n3)cc2)ccn1 [Example 10, 4-(4-{[2-amino-6-(3-furyl)pyrimidin-4-yl]amino}-phenoxy)-N-methylpyridine-2-carboxamide]	0.5 to 2
Nc1nc(Nc2ccc(Oc3ccc(Cl)cc3)cc2)cc(-c2ccccc2)n1 [Example 12, N^4-[4-(4-chlorophenoxy)phenyl]-6-phenylpyrimidine-2,4-diamine]	0.5 to 2
COCCNC(=O)c1cc(Oc2ccc(Nc3cc(-c4ccccc4)nc(N)n3)cc2)ccn1 [Example 23, 4-{4-[(2-amino-6-phenylpyrimidin-4-yl)amino]phenoxy}-N-(2-methoxyethyl)pyridine-2-carboxamide]	0.5 to 2
CN1CCN(C(=O)c2cc(Oc3ccc(Nc4cc(-c5ccccc5)nc(N)n4)cc3)ccn2)CC1 [Example 26, N4*-[4-({2-[(4-methylpiperazin-1-yl)carbonyl]pyridin-4-yl}oxy)phenyl]-6-phenylpyrimidine-2,4-diamine trifluoroacetate]	0.5 to 2
CCNc1nc(Nc2ccc(Oc3ccnc(C(F)(F)F)c3)cc2)cc(-c2cccc(OC)c2)n1 [Example 30, N^2-ethyl-6-(3-methoxy-phenyl)-N^4-[4-(2-trifluoromethyl-pyridin-4-yloxy)-phenyl]-pyrimidine-2,4-diamine]	0.5 to 2
Nc1nc(Nc2ccc(Oc3ccnc(OCCN4CCOCC4)c3)cc2)cc(-c2ccccc2)n1 [Example 32, N^4-{4-[2-(2-morpholin-4-yl-ethoxy)-pyridin-4-yloxy]-phenyl}-6-phenyl-pyrimidine-2,4-diamine]	0.5 to 2
Nc1nc(Nc2ccc(Oc3ccnc(CNC(=O)c4ccc(F)cc4)c3)cc2)cc(-c2ccccc2)n1 [Example 41, N-[(4-{4-[(2-amino-6-phenylpyrimidin-4-yl)amino]phenoxy}pyridin-2-yl)methyl]-4-fluorobenzamide]	0.5 to 2
CCN(CC)C(=O)NCc1cc(Oc2ccc(Nc3cc(-c4ccccc4)nc(N)n3)cc2)ccn1 [Example 42, N′-[(4-{4-[(2-amino-6-phenylpyrimidin-4-yl)amino]phenoxy}pyridin-2-yl)methyl]-N,N-diethylurea]	0.5 to 2
Nc1nc(Nc2ccc(Oc3ccnc(C4=NCCN4)c3)cc2)cc(-c2ccccc2)n1 [Example 47, N^4-{4-[2-(4,5-Dihydro-1H-imidazol-2-yl)pyridin-4-yloxy]phenyl}-6-phenylpyrimidine-2,4-diamine]	0.5 to 2
CCOC(=O)c1cc(Oc2cncc(Cl)c2)ccc1Nc1cc(-c2ccccc2)nc(N)n1 [Example 60, ethyl 2-[(2-amino-6-phenylpyrimidin-4-yl)amino]-5-[(5-chloropyridin-3-yl)oxy]benzoate]	0.5 to 2

same assay, conditions: Homo sapiens, HCT-116, 72 h compound exposure, greater than 2 μM

SMILES	IC50 [µM]
COC[C@@H]1CCCN1c1ccnc(Oc2ccc(Nc3cc(-c4ccccc4)nc(N)n3)cc2)c1 [Example 43]	> 2
CC(C)NCc1cc(Oc2ccc(Nc3cc(-c4ccccc4)nc(N)n3)cc2)ccn1 [Example 44, N^4-[4-({2-[(isopropylamino)methyl]pyridin-4-yl}oxy)phenyl]-6-phenylpyrimidine-2,4-diamine]	> 2

same assay, conditions: Homo sapiens, HCT-116, 72 h compound exposure, less than or equal to 500 nM

SMILES	IC50 [µM]
CCc1cc(Oc2ccc(Nc3cc(-c4ccccc4)nc(N)n3)cc2)ccn1 [Example 1, N^4-{4-[(2-ethylpyridin-4-yl)oxy]phenyl}-6-phenyl-pyrimidine-2,4-diamine]	≤ 0.5
Cc1cc(Oc2ccc(Nc3cc(-c4ccccc4)nc(N)n3)cc2)ccn1 [Example 2, N^4-{4-[(2-methylpyridin-4-yl)oxy]phenyl}-6-phenylpyrimidine-2,4-diamine]	≤ 0.5
NC(=O)c1cc(Oc2cccc(Nc3cc(-c4ccccc4)nc(N)n3)c2)ccn1 [Example 3, 4-{3-[(2-amino-6-phenylpyrimidin-4-yl)amino]phenoxy}pyridine-2-carboxamide]	≤ 0.5
CNC(=O)c1cc(Oc2cccc(Nc3cc(-c4ccccc4)nc(N)n3)c2)ccn1 [Example 4, 4-{3-[(2-amino-6-phenylpyrimidin-4-yl)amino]phenoxy}-N-methylpyridine-2-carboxamide]	≤ 0.5
N#Cc1cc(Oc2ccc(Nc3cc(-c4ccccc4)nc(N)n3)c(F)c2)ccn1 [Example 6, 4-{4-[(2-amino-6-phenylpyrimidin-4-yl)amino]-3-fluorophenoxy} pyridine-2-carbonitrile hydrochloride]	≤ 0.5
Cc1cc(Oc2ccc(Nc3cc(-c4ccccc4)nc(N)n3)cc2F)ccn1 [Example 7, N^4-{3-fluoro-4-[(2-methylpyridin-4-yl)oxy]phenyl}-6-phenylpyrimidine-2,4-diamine]	≤ 0.5
N#Cc1cc(Oc2ccc(Nc3cc(-c4ccccc4)nc(N)n3)cc2)ccn1 [Example 8, 4-{4-[(2-amino-6-phenylpyrimidin-4-yl)amino]phenoxy}pyridine-2-carbonitrile]	≤ 0.5
CNC(=O)c1cc(Oc2cccc(Nc3cc(-c4ccoc4)nc(N)n3)c2)ccn1 [Example 9, 4-(3-{[2-amino-6-(3-furyl)pyrimidin-4-yl]amino}phenoxy)-N-methylpyridine-2-carboxamide]	≤ 0.5
Nc1nc(Nc2ccc(Oc3ccc([N+](=O)[O-])cc3)cc2)cc(-c2ccccc2)n1 [Example 11, N^4-[4-(4-nitrophenoxy)phenyl]-6-phenylpyrimidine-2,4 diamine]	≤ 0.5
COc1ccc(Oc2ccc(Nc3cc(-c4ccccc4)nc(N)n3)cc2)cc1 [Example 13, N^4-[4-(4-methoxyphenoxy)phenyl]-6-phenylpyrimidine-2,4-diamine]	≤ 0.5
COC(=O)c1cc(Oc2ccc(Nc3cc(-c4ccccc4)nc(N)n3)cc2)ccn1 [Example 19, methyl 4-{4-[(2-amino-6-phenylpyrimidin-4-yl)amino]phenoxy}pyridine-2-carboxylate]	≤ 0.5
Nc1nc(Nc2ccc(Oc3ccnc(C(=O)N4CCOCC4)c3)cc2)cc(-c2ccccc2)n1 [Example 21, N^4-(4-{[2-(morpholin-4-ylcarbonyl)pyridin-4-yl]oxy}phenyl)-6-phenylpyrimidine-2,4-diamine]	≤ 0.5
Nc1nc(Nc2ccc(Cc3ccnc(C(F)(F)F)c3)cc2)cc(-c2ccccc2)n1 [Example 33, 6-phenyl-N^4-[4-(2-trifluoromethyl-pyridin-4-ylmethyl)-phenyl]-pyrimidin-2,4-diamine]	≤ 0.5
Nc1nc(Nc2ccc(Cc3ccnc(Cl)c3)cc2)cc(-c2ccccc2)n1 [Example 34, N4*-{4-[(2-chloropyridin-4-yl)methyl]phenyl}-6-phenylpyrimidine-2,4-diamine]	≤ 0.5
N#Cc1cc(Cc2ccc(Nc3cc(-c4ccccc4)nc(N)n3)cc2)ccn1 [Example 35, 4-[4-(2-amino-6-phenyl-pyrimidin-4-ylamino)-benzyl]-pyridine-2-carbonitrile]	≤ 0.5
Nc1nc(Nc2ccc(Oc3ccnc(C(F)(F)F)c3)cc2)cc(-c2ccccc2)n1 [Example 37, 6-phenyl-N^4-(4-{[2-(trifluoromethyl)pyridin-4-yl]oxy}phenyl)pyrimidine-2,4-diamine]	≤ 0.5
Nc1nc(Nc2ccc(Oc3cc[n+]([O-])c(C(F)(F)F)c3)cc2)cc(-c2ccccc2)n1 [Example 38, N^4-(4-{[1-oxido-2-(trifluoromethyl)pyridin-4-yl]oxy}phenyl)-6-phenylpyrimidine-2,4-diamine]	≤ 0.5
CS(=O)(=O)NCc1cc(Oc2ccc(Nc3cc(-c4ccccc4)nc(N)n3)cc2)ccn1 [Example 40, N-[(4-{4-[(2-amino-6-phenylpyrimidin-4-yl)amino]-phenoxy}pyridin-2-yl)methyl]methanesulfonamide]	≤ 0.5
Nc1nc(Nc2ccc(Oc3ccnc(C(=O)NCCO)c3)cc2)cc(-c2ccccc2)n1 [Example 45, 4-[4-(2-Amino-6-phenylpyrimidin-4-ylamino)phenoxy]pyridine-2-carboxylic acid (2-hydroxyethyl)amide]	≤ 0.5
Nc1nc(Nc2ccc(Oc3ccnc(-c4nnn[nH]4)c3)cc2)cc(-c2ccccc2)n1 [Example 46, 6-phenyl-N^4-{4-[2-(1H-tetrazol-5-yl)pyridin-4-yloxy]phenyl}pyrimidine-2,4-diamine]	≤ 0.5
Nc1nc(Nc2ccc(Oc3ccnc(Cl)c3)cc2)cc(-c2ccccc2)n1 [Example 48, N^4-[4-(2-Chloro-pyridin-4-yloxy)-phenyl]-6-phenyl-pyrimidine-2,4 diamine]	≤ 0.5
COC[C@@H]1CCCN1c1cc(Oc2ccc(Nc3cc(-c4ccccc4)nc(N)n3)cc2)ccn1 [Example 49, (S)—N^4-{4-[2-(2-Methoxymethylpyrrolidin-1-yl)pyridin-4-yloxy]phenyl}-6-phenylpyrimidine-2,4-diamine]	≤ 0.5
Nc1nc(Nc2ccc(Oc3ccnc(C(F)(F)F)c3)cc2)cc(-c2ccc(NC(=O)[C@@H](N)CO)cc2)n1 [Example 50, 2-amino-N-(4-{2-amino-6-[4-(2-trifluoromethylpyridin-4-yloxy)phenylamino]pyrimidin-4-yl}phenyl)-3-hydroxypropionamide]	≤ 0.5
Nc1nc(Nc2ccc(Oc3ccnc(C(F)(F)F)c3)cc2)cc(-c2ccc(O)cc2)n1 [Example 51, 4-{2-amino-6-[(4-{[2-(trifluoromethyl)pyridin-4-yl]oxy}phenyl)amino]pyrimidin-4-yl}phenol]	≤ 0.5
Nc1nc(Nc2ccc(Oc3ccnc(C(F)(F)F)c3)cc2)cc(-c2ccc(OS(N)(=O)=O)cc2)n1 [Example 52, sulfamic acid, 4-{2-amino-6-[4-(2-trifluoromethylpyridin-4-yloxy)phenylamino]pyrimidin-4-yl}phenyl ester]	≤ 0.5
Nc1cc(Oc2ccc(Nc3cc(-c4ccccc4)nc(N)n3)cc2)ccn1 [Example 53, N^4-[4-(2-aminopyridin-4-yloxy)phenyl]-6-phenylpyrimidine-2,4-diamine]	≤ 0.5
Nc1nc(Nc2ccc(Oc3ccnc(/C=C/CCO)c3)cc2)cc(-c2ccccc2)n1 [Example 58, (3E)-4-(4-{4-[(2-amino-6-phenylpyrimidin-4-yl)amino]phenoxy}pyridin-2-yl)but-3-en-1-ol]	≤ 0.5
